Measurements: patent US20070259860A1, “MGluR5 modulators V” (AstraZeneca AB, priority 2006, published 2007)

Experiments:
[1] = Determination of brain to plasma ratio in rat; format: in vivo; details: brain and plasma, female Sprague Dawley rats, read-out: Brain/Plasma Ratio of compound in Rat
Protocol: Brain to plasma ratios are estimated in female Sprague Dawley rats. The compound is dissolved in water or another appropriate vehicle. For determination of brain to plasma ratio the compound is administrated as a subcutaneous, or an intravenous bolus injection, or an intravenous infusion, or an oral administration. At a predetermined time point after the administration a blood sample is taken with cardiac puncture. The rat is terminated by cutting the heart open, and the brain is immediately retained. The blood samples are collected in heparinized tubes and centrifuged within 30 minutes, in order to separate the plasma from the blood cells. The plasma is transferred to 96-well plates and stored at −20° C. until analysis. The brains are divided in half, and each half is placed in a pre-tarred tube and stored at −20° C. until analysis. Prior to the analysis, the brain samples are thawed and 3 ml/g brain tissue of distilled water is added to the tubes. The brain samples are sonicated in an ice bath until the samples are homogenized. Both brain and plasma samples are precipitated with acetonitrile. After centrifugation, the supernatant is diluted with 0.2% formic acid. Analysis is performed on a short reversed-phase HPLC column with rapid gradient elution and MSMS detection using a triple quadrupole instrument with electrospray ionisation and Selected Reaction Monitoring (SRM) acquisition. Liquid-liquid extraction may be used as an alternative sample clean-up. The samples are extracted, by shaking, to an organic solvent after addition of a suitable buffer. An aliquot of the organic layer is transferred to a new vial and evaporated to dryness under a stream of nitrogen. After reconstitution of the residuals the samples are ready for injection onto the HPLC column.

human mGluR5d = molecular target: T1, human mGluR5d (Homo sapiens, UniProt P41594); experiment: FLIPR assay, mGluR5 antagonism in cells expressing human mGluR5d; format: cell-based; details: intracellular calcium mobilization, read-out: FLIPR hmGluR5d
T1 construct: expressed in transfected cells
Text: The properties of the compounds of the invention can be analyzed using standard assays for pharmacological activity. Examples of glutamate receptor assays are well known in the art as described in for example Aramori et al., Neuron 8:757 (1992), Tanabe et al., Neuron 8:169 (1992), Miller et al., J. Neuroscience 15: 6103 (1995), Balazs, et al., J. Neurochemistry 69:151 (1997). The methodology described in these publications is incorporated herein by reference. Conveniently, the compounds of the invention can be studied by means of an assay (FLIPR) that measures the mobilization of intracellular calcium, [Ca^2+]i in cells expressing mGluR5 or another assay (IP3) that measures inositol phosphate turnover.
Cells expressing human mGluR5d as described in WO97/05252 are seeded at a density of 100,000 cells per well on collagen coated clear bottom 96-well plates with black sides and experiments are done 24 h following seeding. All assays are done in a buffer containing 127 mM NaCl, 5 mM KCl, 2 mM MgCl2, 0.7 mM NaH2PO4, 2 mM CaCl2, 0.422 mg/ml NaHCO3, 2.4 mg/ml HEPES, 1.8 mg/ml glucose and 1 mg/ml BSA Fraction IV (pH 7.4). Cell cultures in the 96-well plates are loaded for 60 minutes in the above mentioned buffer containing 4 μM of the acetoxymethyl ester form of the fluorescent calcium indicator fluo-3 (Molecular Probes, Eugene, Oreg.) in 0.01% pluronic acid (a proprietary, non-ionic surfactant polyol—CAS Number 9003-11-6). Following the loading period the fluo-3 buffer is removed and replaced with fresh assay buffer. FLIPR experiments are done using a laser setting of 0.800 W and a 0.4 second CCD camera shutter speed with excitation and emission wavelengths of 488 nm and 562 nm, respectively. Each experiment is initiated with 160 μl of buffer present in each well of the cell plate. A 40 μl addition from the antagonist plate was followed by a 50 μL addition from the agonist plate. A 90 second interval separates the antagonist and agonist additions. The fluorescence signal is sampled 50 times at 1 second intervals followed by 3 samples at 5 second intervals immediately after each of the two additions. Responses are measured as the difference between the peak height of the response to agonist, less the background fluorescence within the sample period. IC50 determinations are made using a linear least squares fitting program.

[2] = In vitro stability in human liver microsomes (CLint); format: in vitro ADME; details: pH 7.4, 0.5 mg/mL protein, 1.0 μmol/L compound, NADPH
Protocol: Rat liver microsomes are prepared from Sprague-Dawley rats liver samples. Human liver microsomes are either prepared from human liver samples or acquired from BD Gentest. The compounds are incubated at 37° C. at a total microsome protein concentration of 0.5 mg/mL in a 0.1 mol/L potassium phosphate buffer at pH 7.4, in the presence of the cofactor, NADPH (1.0 mmol/L). The initial concentration of compound is 1.0 μmol/L. Samples are taken for analysis at 5 time points, 0, 7, 15, 20 and 30 minutes after the start of the incubation. The enzymatic activity in the collected sample is immediately stopped by adding a 3.5 times volume of acetonitrile. The concentration of compound remaining in each of the collected samples is determined by means of LC-MS. The elimination rate constant (k) of the mGluR5 inhibitor is calculated as the slope of the plot of In[mGluR5 inhibitor] against incubation time (minutes). The elimination rate constant is then used to calculate the half-life (T ½) of the mGluR5 inhibitor, which is subsequently used to calculate the intrinsic clearance (CLint) of the mGluR5 inhibitor in liver microsomes as:
CLint.=(ln2×incubation volume)/(T½×protein concentration)=μl/min/mg

[3] = molecular target: hERG-encoded potassium channel (Homo sapiens, UniProt Q12809); experiment: hERG IonWorks; format: cell-based
Chain of hERG-encoded potassium channel (Q12809 whole entry): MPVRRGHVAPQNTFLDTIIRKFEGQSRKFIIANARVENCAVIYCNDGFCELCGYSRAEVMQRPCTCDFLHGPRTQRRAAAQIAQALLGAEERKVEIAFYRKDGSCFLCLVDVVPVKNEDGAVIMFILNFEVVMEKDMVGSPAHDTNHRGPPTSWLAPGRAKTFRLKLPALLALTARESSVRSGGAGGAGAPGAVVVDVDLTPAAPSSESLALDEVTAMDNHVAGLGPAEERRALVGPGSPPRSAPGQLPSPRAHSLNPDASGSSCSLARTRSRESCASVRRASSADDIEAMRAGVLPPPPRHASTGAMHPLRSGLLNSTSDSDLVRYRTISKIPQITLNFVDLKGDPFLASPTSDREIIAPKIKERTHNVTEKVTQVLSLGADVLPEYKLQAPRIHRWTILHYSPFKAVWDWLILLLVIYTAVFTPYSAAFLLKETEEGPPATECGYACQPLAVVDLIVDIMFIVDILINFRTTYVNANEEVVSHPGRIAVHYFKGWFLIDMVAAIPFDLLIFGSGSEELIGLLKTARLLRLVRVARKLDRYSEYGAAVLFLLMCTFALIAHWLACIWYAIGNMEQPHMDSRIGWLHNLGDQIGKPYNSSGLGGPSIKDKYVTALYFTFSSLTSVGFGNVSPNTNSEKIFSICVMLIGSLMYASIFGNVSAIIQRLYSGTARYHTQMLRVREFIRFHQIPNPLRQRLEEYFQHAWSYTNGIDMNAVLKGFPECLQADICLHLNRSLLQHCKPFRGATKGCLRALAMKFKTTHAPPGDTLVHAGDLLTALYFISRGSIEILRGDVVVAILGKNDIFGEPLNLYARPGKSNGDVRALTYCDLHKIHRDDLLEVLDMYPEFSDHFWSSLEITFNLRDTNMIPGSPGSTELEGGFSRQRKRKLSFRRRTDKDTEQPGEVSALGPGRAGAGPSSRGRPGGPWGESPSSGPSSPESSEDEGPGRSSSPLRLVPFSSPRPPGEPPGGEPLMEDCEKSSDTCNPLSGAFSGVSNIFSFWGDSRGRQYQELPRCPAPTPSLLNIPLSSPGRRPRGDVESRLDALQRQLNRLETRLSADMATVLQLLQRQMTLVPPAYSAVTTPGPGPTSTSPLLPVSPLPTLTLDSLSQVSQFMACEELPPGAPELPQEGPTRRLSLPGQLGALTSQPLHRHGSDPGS

T1 sequence (P41594 21-942 isoform P41594-3 limits assumed): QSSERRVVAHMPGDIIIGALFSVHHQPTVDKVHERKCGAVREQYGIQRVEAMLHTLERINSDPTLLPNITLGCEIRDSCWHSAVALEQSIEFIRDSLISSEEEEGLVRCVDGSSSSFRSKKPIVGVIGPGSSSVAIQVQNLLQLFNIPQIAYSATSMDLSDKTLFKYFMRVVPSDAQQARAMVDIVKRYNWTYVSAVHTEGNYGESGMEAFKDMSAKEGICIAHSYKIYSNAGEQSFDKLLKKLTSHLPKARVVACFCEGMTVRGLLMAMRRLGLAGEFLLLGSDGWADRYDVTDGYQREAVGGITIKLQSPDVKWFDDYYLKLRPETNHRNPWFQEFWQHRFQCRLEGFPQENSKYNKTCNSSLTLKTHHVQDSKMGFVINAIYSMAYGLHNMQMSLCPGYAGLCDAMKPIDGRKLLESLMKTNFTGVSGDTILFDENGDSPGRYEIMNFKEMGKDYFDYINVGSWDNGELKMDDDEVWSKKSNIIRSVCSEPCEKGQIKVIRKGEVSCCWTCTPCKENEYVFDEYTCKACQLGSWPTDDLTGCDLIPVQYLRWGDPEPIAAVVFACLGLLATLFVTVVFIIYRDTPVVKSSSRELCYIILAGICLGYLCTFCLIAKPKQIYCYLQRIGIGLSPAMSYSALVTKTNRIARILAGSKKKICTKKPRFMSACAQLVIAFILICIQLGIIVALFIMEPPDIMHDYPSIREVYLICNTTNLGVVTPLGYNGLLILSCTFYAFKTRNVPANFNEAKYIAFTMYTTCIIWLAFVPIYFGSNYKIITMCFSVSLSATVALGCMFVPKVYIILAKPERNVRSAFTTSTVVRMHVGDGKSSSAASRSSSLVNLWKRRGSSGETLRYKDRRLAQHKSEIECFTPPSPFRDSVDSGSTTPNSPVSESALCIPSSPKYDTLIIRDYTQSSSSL

Kp [1] | IC50 (human mGluR5d) [nM] | microsomal CLint at 1 μmol/L [2] [µL/min/mg] | SMILES | hERG IonWorks [3] [µM]
0.005 | 37 | < 12 | Cc1cccc(-n2nnc(CN3CCCn4c(-c5cccnc5)nnc43)n2)c1 [Example 35.1, 3-Pyridin-3-yl-8-(2-m-tolyl-2H-tetrazol-5-ylmethyl)-5,6,7,8-tetrahydro-[1,2,4]triazolo[4,3-a]pyrimidine] | 26
0.05 | 52 |  | Clc1cccc(-c2nc(CN3CCCn4c(-c5cccnc5)nnc43)no2)c1 [Example 35.2, 8-{[5-(3-chlorophenyl)-1,2,4-oxadiazol-3-yl]methyl}-3-pyridin-3-yl-5,6,7,8-tetrahydro[1,2,4]triazolo[4,3-a]pyrimidine] | 
0.11 | 44 | 14 | Clc1cccc(-c2nc(CN3CCCn4c(-c5cncnc5)nnc43)no2)c1 [Example 35.17, 8-[5-(3-Chloro-phenyl)-[1,2,4]oxadiazol-3-ylmethyl]-3-pyrimidin-5-yl-5,6,7,8-tetrahydro-[1,2,4]triazolo[4,3-a]pyrimidine] | 22
 | 34 | < 12 | C[C@H](c1cc(-c2cccc(Cl)c2)on1)N1CCCn2c(-c3cn[nH]c(=O)c3)nnc21 [Example 59.3, 5-(8-{1-[5-(3-Chloro-phenyl)-isoxazol-3-yl]-ethyl}-5,6,7,8-tetrahydro-[1,2,4]triazolo[4,3-a]pyrimidin-3-yl)-2H-pyridazin-3-one] | 15
